Values after ≈ are worked out from the molar mass of the structure shown. Values joined by “and” are separate entries in the source; they are usually repeats but may differ in a detail not shown here. Identical values can stand only once.
These molecules were tested on MRS USA 300 (assay: IC50, MIC and MBC against MRS USA 300). Conditions: MRS USA 300; tested Conc. in μg/mL.
Assay type: cell-based, Staphylococcus aureus
Procedure: (§1) As used herein, the term “minimum inhibitory concentration (MIC)” refers to the lowest concentration of an antimicrobial agent that will inhibit the visible growth of a microorganism after overnight incubation. MIC values against bacteria may be determined by standard methods. See also P. A. Wayne, Methods for Dilution Antimicrobial Tests for Bacteria that Grow Aerobically; Approved Standard, Ninth Edition, 2012, CLSI Document M07-A9, Vol. 32 No. 2, which is incorporated by reference herein in its entirety.

Compound | MBC | MIC | IC50
C=C(C)[C@@H]1CCC(C)=C[C@H]1c1c(O)cc(CCCCC)cc1O [CBD, Cannabidiol] | 3.33 | 1.67 | –
CC(C)=CCCC1(C)C=Cc2c(O)cc(C)cc2O1 (stereo not drawn) [Cannabichromeorcin] | 13.33 | 10 ± 0 | 5.41
C=C(C)[C@@H]1CCC(C)=C[C@H]1c1c(O)cc(CCCCC)c(C(=O)O)c1O [Cannabidiolic acid] | – | 20 ± 0 | –
C=C(C)[C@@H]1CC[C@](C)(O)[C@H]2Oc3cc(CCCCC)cc(O)c3[C@@H]12 [Cannabielsoin] | 20 ± 0 | 10 ± 0 | 5.49

Same assay, conditions: Staphylococcus aureus, USA300

Compound | IC50 | MBC | MIC
C=C(C)[C@@H]1CCC(C)=C[C@H]1c1c(O)cc(CCCCC)cc1O [CBD, Cannabidiol] | 2.99 µM and 0.94 µg/mL | 10.6 ± 4.58 µM (≈ 3.33 µg/mL) | 5.31 ± 2.29 µM (≈ 1.67 µg/mL)
C=C(C)[C@@H]1CCC(C)=C[C@H]1c1c(O)cc(CCCCC)c(C(=O)O)c1O [Cannabidiolic acid] | 6.11 µg/mL (≈ 17 µM) | – | –

The molecules below were run on MRS 1708 (Mupirocin-resistant) (assay: IC50, MIC and MBC against MRS 1708 (Mupirocin-resistant)). Conditions: Mupirocin-resistant MRS (Table 11).
Assay type: cell-based, Staphylococcus aureus
Set-up: AMC: unit not given here
Procedure: as §1

Compound | AMC
CC(C)=CCCC1(C)C=Cc2c(O)cc(C)cc2O1 (stereo not drawn) [Cannabichromeorcin] | 13.33 ± 5.77
C=C(C)[C@@H]1CC[C@](C)(O)[C@H]2Oc3cc(CCCCC)cc(O)c3[C@@H]12 [Cannabielsoin] | 20 ± 0

Same assay, conditions: Mupirocin-resistant MRS (Table 11); in µg/mL

Compound | IC50
CC(C)=CCCC1(C)C=Cc2c(O)cc(C)cc2O1 (stereo not drawn) [Cannabichromeorcin] | 5.57 ± 0.27
C=C(C)[C@@H]1CC[C@](C)(O)[C@H]2Oc3cc(CCCCC)cc(O)c3[C@@H]12 [Cannabielsoin] | 6.03 ± 0.49

Same assay, conditions: Staphylococcus aureus

Compound | IC50 | MBC | MIC
C=C(C)[C@@H]1CCC(C)=C[C@H]1c1c(O)cc(CCCCC)cc1O [CBD, Cannabidiol] | 2.86 µM and 0.9 µg/mL | 10.6 ± 4.58 µM (≈ 3.33 µg/mL) | 5.31 ± 2.29 µM (≈ 1.67 µg/mL)
C=C(C)[C@@H]1CCC(C)=C[C@H]1c1c(O)cc(CCCCC)c(C(=O)O)c1O [Cannabidiolic acid] | 5.57 ± 0.68 µg/mL (≈ 15.5 µM) | – | –

The molecules below were run on MRS 33591 (assay: IC50, MIC and MBC against MRS 33591). Conditions: MRS 33591; tested Conc. in μg/mL.
Assay type: cell-based, Staphylococcus aureus
Procedure: as §1

Compound | IC50 | MBC | MIC
CC(C)=CCCC1(C)C=Cc2c(O)cc(C)cc2O1 (stereo not drawn) [Cannabichromeorcin] | 5.56 | 20 ± 0 | 10 ± 0
C=C(C)[C@@H]1CC[C@](C)(O)[C@H]2Oc3cc(CCCCC)cc(O)c3[C@@H]12 [Cannabielsoin] | 6.26 | – | 10 ± 0

Same assay, conditions: Staphylococcus aureus

Compound | IC50 | MIC
C=C(C)[C@@H]1CCC(C)=C[C@H]1c1c(O)cc(CCCCC)cc1O [CBD, Cannabidiol] | 3.24 µM and 1.02 µg/mL | 6.61 µM and 2.08 µg/mL
C=C(C)[C@@H]1CCC(C)=C[C@H]1c1c(O)cc(CCCCC)c(C(=O)O)c1O [Cannabidiolic acid] | 7.27 µg/mL (≈ 20.3 µM) | 20 µg/mL (≈ 55.8 µM)

Each molecule was assayed on MRS USA 400 (assay: IC50, MIC and MBC against MRS USA 400). Conditions: MRS USA 400; tested Conc. in μg/mL.
Assay type: cell-based, Staphylococcus aureus
Procedure: as §1

Compound | MIC | IC50 | MBC
C=C(C)[C@@H]1CCC(C)=C[C@H]1c1c(O)cc(CCCCC)cc1O [CBD, Cannabidiol] | 2.5 ± 0 | – | –
CC(C)=CCCC1(C)C=Cc2c(O)cc(C)cc2O1 (stereo not drawn) [Cannabichromeorcin] | 10 ± 0 | 5.9 | 20 ± 0
C=C(C)[C@@H]1CCC(C)=C[C@H]1c1c(O)cc(CCCCC)c(C(=O)O)c1O [Cannabidiolic acid] | 13.33 | – | –
C=C(C)[C@@H]1CC[C@](C)(O)[C@H]2Oc3cc(CCCCC)cc(O)c3[C@@H]12 [Cannabielsoin] | 10 ± 0 | 6.03 | –

Same assay, conditions: Staphylococcus aureus, USA400

Compound | IC50 | MIC
C=C(C)[C@@H]1CCC(C)=C[C@H]1c1c(O)cc(CCCCC)cc1O [CBD, Cannabidiol] | 3.69 µM and 1.16 µg/mL | 7.95 µM (≈ 2.5 µg/mL)
C=C(C)[C@@H]1CCC(C)=C[C@H]1c1c(O)cc(CCCCC)c(C(=O)O)c1O [Cannabidiolic acid] | 4.99 µg/mL (≈ 13.9 µM) | –

Each molecule was assayed on S. aureus 29213 (assay: IC50, MIC and MBC against S. aureus 29213). Conditions: S. aureus 29213; tested Conc. in μg/mL.
Assay type: cell-based
Procedure: As used herein, the term “minimum inhibitory concentration (MIC)” refers to the lowest concentration of an antimicrobial agent that will inhibit the visible growth of a microorganism after overnight incubation. MIC values against bacteria may be determined by standard methods.

Compound | MIC
CC(C)=CCCC1(C)C=Cc2c(O)cc(C)cc2O1 (stereo not drawn) [Cannabichromeorcin] | 10 ± 0
C=C(C)[C@@H]1CC[C@](C)(O)[C@H]2Oc3cc(CCCCC)cc(O)c3[C@@H]12 [Cannabielsoin] | 10 ± 0

Same assay, conditions: S. aureus 29213; tested Conc. in μg/mL; NA given without definition

Compound | IC50
CC(C)=CCCC1(C)C=Cc2c(O)cc(C)cc2O1 (stereo not drawn) [Cannabichromeorcin] | 6.94
C=C(C)[C@@H]1CC[C@](C)(O)[C@H]2Oc3cc(CCCCC)cc(O)c3[C@@H]12 [Cannabielsoin] | 6.15

Same assay, conditions: Staphylococcus aureus, 29213

Compound | IC50
C=C(C)[C@@H]1CCC(C)=C[C@H]1c1c(O)cc(CCCCC)cc1O [CBD, Cannabidiol] | 1.16 µg/mL (≈ 3.69 µM)
C=C(C)[C@@H]1CCC(C)=C[C@H]1c1c(O)cc(CCCCC)c(C(=O)O)c1O [Cannabidiolic acid] | 6.83 µg/mL (≈ 19.1 µM)

Same assay, conditions: Staphylococcus aureus; S. aureus 29213; tested Conc. in μg/mL; read-out: MIC

Compound | MIC
C=C(C)[C@@H]1CCC(C)=C[C@H]1c1c(O)cc(CCCCC)cc1O [CBD, Cannabidiol] | 2.08 µg/mL (≈ 6.61 µM)
C=C(C)[C@@H]1CCC(C)=C[C@H]1c1c(O)cc(CCCCC)c(C(=O)O)c1O [Cannabidiolic acid] | 16.7 µg/mL (≈ 46.5 µM)

Each molecule was assayed on MRS 33591 (assay: Growth inhibition of cannabinoid combinations, IC50s chosen for FICs, MRS 33591). Conditions: Staphylococcus aureus, read-out: IC50, Cannabidiol (CBD) + Cannabigerol (CBG).
Assay type: cell-based

Compound | IC50
C=C(C)[C@@H]1CCC(C)=C[C@H]1c1c(O)cc(CCCCC)cc1O [CBD, Cannabidiol] | 1.23 µg/mL

Same assay, conditions: Staphylococcus aureus, read-out: IC50, Cannabidiol (CBD) + Cannabinol (CBN)

Compound | IC50
C=C(C)[C@@H]1CCC(C)=C[C@H]1c1c(O)cc(CCCCC)cc1O [CBD, Cannabidiol] | 1.28 µg/mL

Each molecule was assayed on MRS 1696 (assay: Growth inhibition of cannabinoid combinations, IC50s chosen for FICs, MRS 1696). Conditions: Staphylococcus aureus, read-out: IC50, Cannabidiol (CBD) + Cannabigerol (CBG).
Assay type: cell-based

Compound | IC50
C=C(C)[C@@H]1CCC(C)=C[C@H]1c1c(O)cc(CCCCC)cc1O [CBD, Cannabidiol] | 1.28 µg/mL

Same assay, conditions: Staphylococcus aureus, read-out: IC50, Cannabidiol (CBD) + Cannabinol (CBN)

Compound | IC50
C=C(C)[C@@H]1CCC(C)=C[C@H]1c1c(O)cc(CCCCC)cc1O [CBD, Cannabidiol] | 1.36 µg/mL

The molecules below were run on MRS 1708 (assay: Growth inhibition of cannabinoid combinations, IC50s chosen for FICs, MRS 1708). Conditions: Staphylococcus aureus, read-out: IC50, Cannabidiol (CBD) + Cannabigerol (CBG), IC50 of first-named cannabinoid at the fixed ug/mL of the second given in the label.
Assay type: cell-based

Compound | IC50
C=C(C)[C@@H]1CCC(C)=C[C@H]1c1c(O)cc(CCCCC)cc1O [CBD, Cannabidiol] | 0.96 µg/mL

Same assay, conditions: Staphylococcus aureus, read-out: IC50, Cannabidiol (CBD) + Cannabinol (CBN), IC50 of first-named cannabinoid at the fixed ug/mL of the second given in the label

Compound | IC50
C=C(C)[C@@H]1CCC(C)=C[C@H]1c1c(O)cc(CCCCC)cc1O [CBD, Cannabidiol] | 1.06 µg/mL

What follows are molecules tested on MRS 1717 (assay: Growth inhibition of cannabinoid combinations, IC50s chosen for FICs, MRS 1717). Conditions: Staphylococcus aureus, read-out: IC50, Cannabidiol (CBD) + Cannabigerol (CBG).
Assay type: cell-based

Compound | IC50
C=C(C)[C@@H]1CCC(C)=C[C@H]1c1c(O)cc(CCCCC)cc1O [CBD, Cannabidiol] | 0.864 µg/mL

Same assay, conditions: Staphylococcus aureus, read-out: IC50, Cannabidiol (CBD) + Cannabinol (CBN)

Compound | IC50
C=C(C)[C@@H]1CCC(C)=C[C@H]1c1c(O)cc(CCCCC)cc1O [CBD, Cannabidiol] | 1.1 µg/mL

The molecules below were run on Mupirocin-resistant MRS (assay: not given). Conditions: in combination with Mupirocin.
Assay type: cell-based, Staphylococcus aureus

Compound | effect of combination with Mupirocin
C=C(C)[C@@H]1CCC(C)=C[C@H]1c1c(O)cc(CCCCC)cc1O [CBD, Cannabidiol] | no effect

Source: patent US20210315837A1, “CANNABINOIDS FOR THE TREATMENT OF GRAM-POSITIVE INFECTIONS INCLUDING ANTIBIOTIC-RESISTANT BACTERIAL STRAINS” (priority 2018, published 2021)
